Test results reported in patent publication US9006205B2, “Antisense oligonucleotides against neutral sphingomyelinase and neutral sphingomyelinase inhibitor GW4869 for degenerative neurological disorders” (Rush University Medical Center, priority 2011, dated 2015).

Experiments:
Assay type in all cases: cell-based
primary human neurons [1] = assay: TUNEL apoptosis of neurons challenged by (fibrillar Aβ+IL-1β)-activated astrocytes, astrocyte-neuron trans-well; conditions: neurons pretreated 40 h with 1 μM oligonucleotide; 6 h with (fibrillar Aβ+IL-1β)-activated astrocytes
Protocol: (§1) Primary human astrocytes were grown to confluency on inserts. After 24 h of stimulation by the combination of Aβ (1 μM) and IL-Iβ (10 ng/ml), inserts were washed thrice with HBSS and then placed onto the wells containing primary human neurons. Therefore, in this trans-well model, although neurons and astrocytes face each other, they are separable and the effect of soluble factors released from activated astrocytes on neurons can be studied allowing analysis of neuronal and glial populations separately.
Fragmented DNA was detected in situ by the terminal deoxynucleotidyltransferase-mediated binding of 3′-OH ends of DNA fragments generated in response to fibrillar Aβ1-42, using a commercially available kit (TdT FragEL™) from Calbiochem. […]
(§2) Primary human neurons were incubated with antisense (ASO) and scrambled oligonucleotides (ScO) against N-SMase (A) and A-SMase (FIG. 2B). After 48 h, neurons were analyzed for protein expression of N-SMase and A-SMase. […] After 6 h of treatment with activated astrocytes, apoptotic events in neurons were detected by TUNEL. In FIG. 2D, TUNEL-positive cells were counted manually in four different images of each of three coverslips by three individuals blinded to the experiment. […] Values obtained from the control group served as 100%, and data obtained in other groups were calculated as percent of control accordingly. […]

primary human neurons [2] = assay: MTT metabolism of neurons in astrocyte-neuron trans-well; conditions: neurons pretreated with oligonucleotide; 18 h of stimulation
Protocol: as §1
Mitochondrial activity was measured with the 3-(4,5-dimethylthiazol-2-yl)-2,5-diphenyltetrazolium bromide (MTT) assay (Sigma). The cells were grown on 24-well culture plates with 500 μl of medium and treated with various reagents according to the experimental design. At the end of the treatment period, 300 μl of culture medium were removed from each well, and 20 μl of MTT solution (5 mg/ml) were added and incubated for 1 h.
as §2, with “A-SMase. In FIG. 2C, primary human astrocytes seeded in inserts were stimulated by the combination of Aβ and IL-1β as described above.” for “A-SMase.”
In FIGS. 3A-3E, primary human astrocytes seeded in inserts were stimulated by the combination of Aβ and IL-Iβ as described above. […] In FIG. 3A, after 1 h, activity of N-SMase was measured in total cell extracts of neurons as described above. […] Values obtained from the control group served as 100%, and data obtained in other groups were calculated as percent of control accordingly.

primary human neurons [3] = assay: TUNEL apoptosis of neurons challenged by oligomeric Aβ-activated astrocytes, trans-well; conditions: neurons pretreated 40 h with 1 μM oligonucleotide; 6 h
Protocol: Fragmented DNA was detected in situ by the terminal deoxynucleotidyltransferase-mediated binding of 3′-OH ends of DNA fragments generated in response to fibrillar Aβ1-42, using a commercially available kit (TdT FragEL™) from Calbiochem. Briefly, cover slips were treated with 20 μg/ml proteinase K for 15 min at room temperature and washed prior to terminal deoxynucleotidyltransferase staining.
In FIG. 5A, primary astrocytes were stimulated with fibrillar Aβ1-42, oligomeric Aβ1-42 and reverse peptide Aβ42-1 for 24 h followed by double-labeling of GFAP and iNOS. In FIG. 5B, primary human astrocytes seeded in inserts were stimulated with a combination of I μM of oligomeric Aβ1-42 and 10 ng/ml of IL-Iβ in serum free media. […] After 6 h, neuronal apoptosis was monitored by TUNEL. In FIG. 5C, TUNEL-positive cells were counted manually in four different images of each of three coverslips by three individuals blinded to the experiment. Values obtained from the control group (1) served as 100%, and data obtained from other three groups i.e. the oligomeric Aβ-activated astrocytes (OAA) group (2), the ASO-OAA group (3), and the ScO-OAA group (4) was calculated as percent of control accordingly. Results are mean+S.D. of three different experiments. ^ap<0.001 vs control; ^bp<0.001 vs OAA.

5′- CAGCGAGCCCGTCCACCAGCC -3′ (DNA, all phosphorothioate, methylation of C not given here) [ASO against N-SMase, ID; NO.: 12]
protection of neurons from activated astrocyte-induced apoptosis (TUNEL) (primary human neurons [1]): markedly protected
activated astroglia-mediated loss of MTT metabolism (primary human neurons [2]): effectively prevented
oligomeric Aβ-activated astrocyte-induced apoptosis of human neurons (TUNEL) (primary human neurons [3]): blocked
